Experimental data as given in patent publication US10213415B2, “Compounds as opioid receptor modulators” (JANSSEN PHARMACEUTICA NV, priority 2004, dated 2019).
“And” between values parts separate entries of the source, which are not always exact repeats. Equal values may be shown once. Read-outs that look alike come from different tables or passages of the source.

Experiments:
[1] = tested on: male CD-1 mice; experiment: In Vivo Assay: Upper GI Tract Transit (MUGIT); settings: Mus musculus, po, 1 h, dose 30 (mg), p.o., read-out: upper GI transit (% ctrl)
Method: Methods: The animals used in these studies were male CD-1 mice, ave. wt. ˜30 g. Mice were housed under 12 h/12 h light/dark cycle, food & water ad lib. On the day of the experiment mice were assigned to experimental groups, including one vehicle-only group (=control). At 30 min before administration of carmine dye, animals were dosed with vehicle or vehicle-plus-compound, mice were returned to their home cages after drug administration. After administration of carmine, the animals were either returned to their home cages (non-stressed) or individually placed in the same metal cages as used in the fecal output or entire GI tract transit to induce a novel environment stress. One hour after administration of carmine, mice were sacrificed by cervical dislocation, the abdomen opened midventrally, the small intestine from pylorus to cecum was removed, the mesentery divided in order to lay the intestine straight & flat—without stretching. The total length of intestine and the length of carmine-dyed intestine were measured in order to determine the percent of the upper GI tract over which transit had occurred as follows: {(Length of carmine-dyed intestine)/(Total length of intestine)}×100=% upper GI transit. The data expressed were group means±SD (or s.e.m.) and data expressed as % of control.

[2] = tested on: male CD-1 mice; experiment: In Vivo Assay: Stress-Induced Entire GI Tract Transit (MEGIT, MEGIT-NES, MEGIT-RS); set-up: species or system mouse; settings: dose 20 p.o., restraint stress
Method: Methods: The animals used in these studies are male CD-1 mice, ave. wt. ˜30 g. Procedure: Mice were housed in LAM under 12 h/12 h light/dark cycle, food & water ad lib. On the day before the experiments, the mice assigned to the “acclimated” (non-stressed) control group were placed into individual wire mesh-bottomed cages, provided food and water ad lib. The acclimated control group was in this new environment for 16-18 hrs prior to beginning the test. On the day of the experiment, mice assigned to experimental groups were housed in home cages were transported to procedure room and remain in their home cages until the start of the transit portion of the study. […] After the carmine marker was administered each mouse was placed in the novel environment cage. One hour after administration of carmine, the fecal pellet output of each animal was recorded. At one-hour intervals thereafter the fecal pellets were examined for the presence of carmine-dye. The number of mice that excreted a carmine-containing fecal pellet at the end of each hour post carmine administration was recorded, until all mice had excreted carmine in a fecal pellet or the end of 6 hrs post carmine administration, whichever occurred first. A variant of this novel environment stress (NES) paradigm is to use the same procedures of dye and compound administrations, but to use restraint (confinement in a small plastic tube for 3 hr) as a stressor (RS=restraint stress), followed by two hours in an individual cage (total of 5 hr fecal transit time). […] The mouse entire GI tract (MEGIT) transit test can thus be done in mice that are all acclimated (non-stressed), in which case the data are expressed as % control (vehicle only), or in mice that are exposed to NES or RS, in which cases the data are expressed as % of the vehicle treated NES or RS group.

[3] = molecular target: T1, human delta subtype 2 opioid receptor (Homo sapiens, UniProt P41143); experiment: Human Delta Opioid Receptor Binding Assay (CHO membranes, 3H-Naltrindole); settings: read-out: hKi δ
T1 construct: purchased Perkin Elmer RBHODM400UA; host or cells: Chinese Hamster Ovary cells (recombinant expression)
T1 sequence (P41143 whole entry): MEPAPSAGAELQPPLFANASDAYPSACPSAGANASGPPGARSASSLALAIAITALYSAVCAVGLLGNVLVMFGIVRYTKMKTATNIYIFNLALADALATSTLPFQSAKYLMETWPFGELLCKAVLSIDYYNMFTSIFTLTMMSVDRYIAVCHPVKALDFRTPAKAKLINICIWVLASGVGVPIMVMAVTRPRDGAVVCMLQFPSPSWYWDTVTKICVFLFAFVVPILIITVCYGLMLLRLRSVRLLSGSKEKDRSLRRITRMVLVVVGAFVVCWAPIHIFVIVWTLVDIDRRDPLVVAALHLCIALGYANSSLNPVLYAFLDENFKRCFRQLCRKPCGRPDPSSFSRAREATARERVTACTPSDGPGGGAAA
Summary of the method: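 Filtration binding on CHO-cell membranes expressing the human receptor, in 50 mM Tris pH 7.5 with 5 mM MgCl2, 30 min at room temperature; 3H-naltrindole diluted to 6 nM before mixing 1:1 with compound. Nonspecific binding defined with 1 μM unlabelled naltrindole; inhibition relative to no-inhibitor wells.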

[4] = tested on: novel environment-stressed mice; experiment: In Vivo Assay-Stress-Induced Fecal Output (Fecal Output for 1 hr); set-up: species or system mouse; settings: for Fecal Output (# pellets) cpd: novel environment-stressed mice; for Fecal Output (# pellets) cpd / response vs control in vivo at 30 mg/kg / response vs control in vivo at 10 mg/kg: 1 hr; for response vs control in vivo at 30 mg/kg / response vs control in vivo at 10 mg/kg: Mus musculus, po, 1 h
Summary of the method: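 Adult male Crl:CD-1(ICR) mice (˜30-35 g; at least 10 per dose group) were split into acclimated non-stressed controls, held individually for 16-18 hr in wire-mesh-bottom cages, and non-acclimated stressed groups. Mice were dosed intragastrically with vehicle or test compound in 0.5% methylcellulose, housed individually in novel cages over absorbent cardboard, and fecal pellets per mouse were counted hourly.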

[5] = 30 mg/kg oral, relative to acclimated control, read-out: Fecal Output cpd % control
[6] = 30 mg/kg oral, relative to novel environment stress (NES) vehicle group, read-out: Fecal Output cpd % NES
[7] = 10 mg/kg oral, relative to acclimated control, read-out: Fecal Output cpd % control
[8] = 10 mg/kg oral, relative to novel environment stress (NES) vehicle group, read-out: Fecal Output cpd % NES

## Cc1cc(C(N)=O)cc(C)c1C[C@H](N)C(=O)N(Cc1cccc(C(=O)O)c1)[C@@H](C)c1nc(-c2ccccc2)c[nH]1 [Cpd 227]
[1]
  response vs control in vivo at 30 mg: 93.9%
[2]
  MEGIT-RS entire GI transit 5 hr (% RS): 100 % RS

## COc1ccc(CN(C(=O)[C@@H](N)Cc2c(C)cc(C(N)=O)cc2C)[C@@H](C)c2nc(-c3ccccc3)c[nH]2)cc1-c1nnn[nH]1 [Cpd 8]
[1]
  response vs control in vivo at 30 mg: 77.3%

## CC(C)N(Cc1nc(-c2ccccc2)c[nH]1)C(=O)[C@@H](N)Cc1ccc(O)cc1 [Cpd 195]
[3]
  Ki: > 10000 nM

## Cc1cc(O)cc(C)c1C[C@H](N)C(=O)N(Cc1nc(-c2ccccc2)c[nH]1)C1CCCCC1 [Cpd 190]
[3]
  Ki: 285 nM

## Cc1cc(C(N)=O)cc(C)c1C[C@H](N)C(=O)N(Cc1ccccc1)[C@@H](C)c1nc(-c2ccccc2)c[nH]1 [Cpd 114]
[3]
  Ki: 49 nM
[4]; 30 mg/kg oral
  Fecal Output (# pellets) cpd: 7.8 pellets
[4]; [5]
  response vs control in vivo at 30 mg/kg: 108%
[4]; [6]
  response vs control in vivo at 30 mg/kg: 75.7%
[4]; dose 3.0, oral, NES mice, fecal output 1 hr
  # of pellets, Compound (m) 3.0: 9.6
[4]; dose 3.0, oral, NES mice, vs acclimated control
  Fecal pellet output, Compound (% control) 3.0: 282.4 % control
[4]; dose 3.0, oral, vs vehicle NES group
  Fecal pellet output, Compound (% NES) 3.0: 96 % NES
[4]; dose 10.0, oral, NES mice, fecal output 1 hr
  # of pellets, Compound (m) 10.0: 7.7
[4]; dose 10.0, oral, NES mice, vs acclimated control
  Fecal pellet output, Compound (% control) 10.0: 226.5 % control
[4]; dose 10.0, oral, vs vehicle NES group
  Fecal pellet output, Compound (% NES) 10.0: 77 % NES
[4]; dose 30.0, oral, NES mice, fecal output 1 hr
  # of pellets, Compound (m) 30.0: 5.4
[4]; dose 30.0, oral, NES mice, vs acclimated control
  Fecal pellet output, Compound (% control) 30.0: 159 % control
[4]; dose 30, oral, vs vehicle NES group
  Fecal pellet output, Compound (% NES) 30: 54 % NES

## Cc1cc(O)cc(C)c1C[C@H](N)C(=O)N(Cc1nc(-c2ccc(F)cc2)c(C)[nH]1)C(C)C [Cpd 163]
[3]
  Ki: 301 nM and 63 nM

## Cc1cc(O)cc(C)c1C[C@H](N)C(=O)N(Cc1nc(-c2ccccc2)c[nH]1)CC1CC1 [Cpd 192]
[4]; 10 mg/kg oral
  Fecal Output (# pellets) cpd: 10.5 pellets
[4]; [7]
  response vs control in vivo at 10 mg/kg: 194%
[4]; [8]
  response vs control in vivo at 10 mg/kg: 84%

## CC(C)N(C(=O)[C@@H](N)Cc1ccc(O)cc1)[C@@H](C)c1nc(-c2ccccc2)c[nH]1 [Cpd 225]
[4]; 30 mg/kg oral
  Fecal Output (# pellets) cpd: 7.3 pellets
[4]; [5]
  response vs control in vivo at 30 mg/kg: 235%
[4]; [6]
  response vs control in vivo at 30 mg/kg: 152%

## Cc1cc(O)cc(C)c1C[C@H](N)C(=O)N(Cc1cccc(C(=O)O)c1)[C@@H](C)c1nc(-c2ccccc2)c[nH]1 [Cpd 48]
[1]
  response vs control in vivo at 30 mg: 102%

## COc1ccc(CN(C(=O)[C@@H](N)Cc2ccc(C(N)=O)cc2)[C@@H](C)c2nc(-c3ccccc3)c[nH]2)cc1C(=O)O [Cpd 4]
[2]
  MEGIT-RS entire GI transit 5 hr (% RS): 100 % RS

## Cc1cc(O)cc(C)c1C[C@H](N)C(=O)N(C)[C@H](C)c1nc(-c2ccccc2)c[nH]1 [Cpd 206]
[3]
  Ki: 275 nM
[4]; 10 mg/kg oral
  Fecal Output (# pellets) cpd: 8.6 pellets
[4]; [7]
  response vs control in vivo at 10 mg/kg: 226%
[4]; [8]
  response vs control in vivo at 10 mg/kg: 65.6%

## Cc1cc(O)cc(C)c1C[C@H](N)C(=O)N(Cc1nc(-c2ccccc2)c(C)[nH]1)C(C)C [Cpd 166]
[3]
  Ki: 300 nM and 375 nM
